A word on the Kd: it is the concentration at which binding is half-saturated. A lower Kd goes with higher affinity.

These results are taken from ChEMBL document CHEMBL1143525, “A fluorescent inositol phosphate glycan stimulates lipogenesis in rat adipocytes by extracellular activation alone” (Bioorg Med Chem Lett, 2005).

For assay [1], the species on record is Rattus norvegicus. Put plainly: Value of Kd measured against rat Adipocytes. It counts as functional, organism-based.
Assay [2] is filed under the species Rattus norvegicus. The assay is described as follows: Maximal activity to stimulate lipogenisis in rat adipocytes compared to the maximal effect of insulin. Type of assay: functional.

For `NC1[C@H](O[C@H]2C(O)C(O)[C@@H](O)C3OP(=O)(O)O[C@H]32)OC(CO)[C@@H](O)[C@@H]1O` (some centres undefined), binding in the assay listed under Rattus norvegicus [1] was put at a Kd of 15.9 µM. Further, the Activity in the assay filed under Rattus norvegicus [2] is on record as 24%.
The corresponding values for `Nc1c(S(=O)(=O)[O-])cc2c3c(cc(S(=O)(=O)[O-])cc13)C(=O)N(CCNC(=O)CSC[C@@H]1O[C@@H](O[C@H]3[C@H](O)[C@H](O)[C@@H](O)[C@@H]4OP(=O)(O)O[C@@H]34)[C@@H](N)[C@@H](O)[C@@H]1O)C2=O.[K+].[K+]` are 12 µM and 47%.
